From ChEMBL document CHEMBL1777672, “Synthesis and antifungal activities of natural and synthetic biflavonoids” (2011) come the findings set out here.

SMILES strings stand for the structures. In brackets after ≈: the same amount, converted by molar mass. Activity calls are given as the source filed them. No cut-off for these calls is given here.

The subject of experiment [1] is Candida albicans. Description: Antifungal activity against Candida albicans ATCC 90028 after 48 hrs by agar diffusion bioautography method. The format is functional, organism-based. A general note: A growth-free zone around the sample is the usual read-out of agar diffusion tests.
A short description of experiment [2]: Antifungal activity against Rhizopus stolonifer (+) ATCC 6227b after 48 hrs by agar diffusion bioautography method. It counts as functional.
For experiment [3], the system named is Candida parapsilosis. The experiment is described as follows: Antifungal activity against Candida parapsilosis ATCC 22019 after 48 hrs by agar diffusion bioautography method. The format is functional, organism-based.
In experiment [4] the test system is Cryptococcus neoformans. The experiment is described as follows: Antifungal activity against Cryptococcus neoformans ATCC 14116 after 72 hrs by broth microdilution technique. Conditions: ATCC 14116, 72 h. The format is functional. On the technique in general: Dilution methods test growth across graded concentrations, often in twofold steps.
The test system of experiment [5] is Aspergillus oryzae. The experiment is described as follows: Antifungal activity against Aspergillus oryzae ATCC 10124 after 48 hrs by agar diffusion bioautography method. The format is functional, organism-based.
The nature of experiment [6]: Antifungal activity against Rhizopus stolonifer (+) ATCC 6227b after 48 hrs by broth microdilution technique. It counts as functional.
In experiment [7] the test system is Aspergillus niger. The experiment is described as follows: Antifungal activity against Aspergillus niger ATCC 16404 after 48 hrs by agar diffusion bioautography method. The format is functional, organism-based.
Experiment [8] concerns Cryptococcus neoformans. The experiment is described as follows: Antifungal activity against Cryptococcus neoformans ATCC 14116 after 72 hrs by agar diffusion bioautography method. It counts as functional, organism-based.
The test system of experiment [9] is Candida parapsilosis. The experiment is described as follows: Antifungal activity against Candida parapsilosis ATCC 22019 after 48 hrs by broth microdilution technique. It counts as functional. The following applies: Lodderomyces parapsilosis, ATCC 22019, 48 h.
Experiment [10] deals with Fusarium solani. The experiment is described as follows: Antifungal activity against Fusarium solani ATCC 36031 after 48 hrs by agar diffusion bioautography method. It counts as functional, organism-based.
Experiment [11] concerns Aspergillus niger. The experiment is described as follows: Antifungal activity against Aspergillus niger ATCC 16404 after 48 hrs by broth microdilution technique. It counts as functional. Conditions: ATCC 16404, 48 h.

For orientation: MIC means the lowest concentration found to suppress growth. Higher therefore signals a less susceptible organism. `O=c1c(-c2c(-c3ccccc3)oc3ccccc3c2=O)c(-c2ccccc2)oc2ccccc12`: the outcome in experiment [1], in experiment [5], in [7] and in [10] was inactive. Besides, the outcome in experiment [2], in experiment [3] and in experiment [8] was Active. Further, the results for the MIC in experiment [4], in experiment [6] and in [9] were over 800 µM, over 800 µM and 400 µM (≈ 177 µg/mL), respectively.

With `O=c1cc(-c2ccccc2)oc2ccccc12` [FLAVONE], the MIC in [4] was 100 µM (≈ 22.2 µg/mL); in experiment [6] it was 100 µM (≈ 22.2 µg/mL); in experiment [9], 200 µM (≈ 44.4 µg/mL); in experiment [11] it was 800 µM (≈ 178 µg/mL).

In the case of `O=c1cc(-c2ccc(O)cc2)oc2ccc(-c3ccc4oc(-c5ccc(O)cc5)cc(=O)c4c3)cc12`, the outcome in experiment [1], in experiment [2], in experiment [5], in [7], in experiment [8] and in experiment [10] was inactive. Also, the outcome in experiment [3] was Active. The compound further showed an MIC in [9] of 400 µM (≈ 190 µg/mL).
